Results from ChEMBL document CHEMBL1201862, “PubChem BioAssay data set” (2004).
Calls of active or inactive are those of the source.

Key:
[1] = target: T1, Sentrin-specific protease 7 (Homo sapiens, UniProt Q9BQF6); type: functional;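 note: Luminescence-based dose-response confirmation of ultra-high-throughput screening hits, measuring inhibition of SENP7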
T1 sequence (Q9BQF6 whole entry): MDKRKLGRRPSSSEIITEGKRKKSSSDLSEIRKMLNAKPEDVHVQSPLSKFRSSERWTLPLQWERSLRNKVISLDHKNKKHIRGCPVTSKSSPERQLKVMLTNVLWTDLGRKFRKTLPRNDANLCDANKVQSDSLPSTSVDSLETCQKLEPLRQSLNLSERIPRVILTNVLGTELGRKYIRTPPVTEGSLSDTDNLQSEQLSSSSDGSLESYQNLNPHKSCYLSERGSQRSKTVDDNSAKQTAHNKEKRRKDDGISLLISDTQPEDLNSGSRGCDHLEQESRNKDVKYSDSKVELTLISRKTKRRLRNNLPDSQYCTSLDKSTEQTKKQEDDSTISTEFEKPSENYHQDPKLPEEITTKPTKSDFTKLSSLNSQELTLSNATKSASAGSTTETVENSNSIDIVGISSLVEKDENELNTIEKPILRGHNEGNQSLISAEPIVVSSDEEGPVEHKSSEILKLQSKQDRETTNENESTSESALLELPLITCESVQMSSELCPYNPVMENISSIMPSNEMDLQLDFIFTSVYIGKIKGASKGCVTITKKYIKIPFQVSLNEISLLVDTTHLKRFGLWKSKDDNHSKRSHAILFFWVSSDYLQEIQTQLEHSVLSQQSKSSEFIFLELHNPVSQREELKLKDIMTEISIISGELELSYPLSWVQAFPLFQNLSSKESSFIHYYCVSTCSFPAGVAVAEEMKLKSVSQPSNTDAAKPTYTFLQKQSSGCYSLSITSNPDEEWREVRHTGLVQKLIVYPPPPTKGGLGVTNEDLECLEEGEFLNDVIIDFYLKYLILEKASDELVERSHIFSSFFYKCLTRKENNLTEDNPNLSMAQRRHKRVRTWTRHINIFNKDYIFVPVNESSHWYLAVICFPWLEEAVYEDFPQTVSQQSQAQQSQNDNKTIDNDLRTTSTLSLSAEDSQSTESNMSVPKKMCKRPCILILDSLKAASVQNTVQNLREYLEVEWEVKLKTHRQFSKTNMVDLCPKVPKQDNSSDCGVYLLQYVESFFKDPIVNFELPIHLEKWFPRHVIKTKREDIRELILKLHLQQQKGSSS

[2] = target: T2, Protein skinhead-1 (Caenorhabditis elegans, UniProt P34707); type: functional
T2 sequence (P34707 whole entry): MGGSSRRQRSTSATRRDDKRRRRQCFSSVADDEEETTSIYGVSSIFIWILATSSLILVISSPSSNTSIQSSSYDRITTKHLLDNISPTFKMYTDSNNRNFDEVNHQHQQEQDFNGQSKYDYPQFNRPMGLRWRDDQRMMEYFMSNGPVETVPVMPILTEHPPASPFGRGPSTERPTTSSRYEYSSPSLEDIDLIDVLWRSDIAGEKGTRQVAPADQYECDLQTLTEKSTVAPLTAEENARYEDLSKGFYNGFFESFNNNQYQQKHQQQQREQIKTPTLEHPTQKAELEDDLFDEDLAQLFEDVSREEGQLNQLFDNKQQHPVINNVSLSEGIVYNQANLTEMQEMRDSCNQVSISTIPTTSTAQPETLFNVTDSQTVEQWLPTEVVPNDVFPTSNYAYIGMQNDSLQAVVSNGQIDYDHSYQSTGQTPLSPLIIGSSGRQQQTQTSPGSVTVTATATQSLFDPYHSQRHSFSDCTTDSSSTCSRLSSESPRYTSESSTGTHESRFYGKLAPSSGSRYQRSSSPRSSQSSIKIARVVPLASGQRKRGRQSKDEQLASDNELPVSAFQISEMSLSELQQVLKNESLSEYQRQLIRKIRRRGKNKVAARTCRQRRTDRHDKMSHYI

[3] = target: T3, Caspase-3 (Homo sapiens, UniProt P42574); type: functional;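 note: Dose-response selectivity test against caspase-3 for candidate inhibitors of sentrin-specific proteases (SENPs)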
T3 sequence (P42574 whole entry): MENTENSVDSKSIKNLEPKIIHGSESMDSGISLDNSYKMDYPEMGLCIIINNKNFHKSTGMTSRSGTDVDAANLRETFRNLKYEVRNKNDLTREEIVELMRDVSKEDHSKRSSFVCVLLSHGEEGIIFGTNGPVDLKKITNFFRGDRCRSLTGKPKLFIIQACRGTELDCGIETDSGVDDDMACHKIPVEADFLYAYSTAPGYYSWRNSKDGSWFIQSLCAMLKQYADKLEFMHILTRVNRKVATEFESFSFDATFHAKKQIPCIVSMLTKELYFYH

[4] = target: T4, Sentrin-specific protease 8 (Homo sapiens, UniProt Q96LD8); type: functional;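 note: luminescence read-out of SENP8 inhibition, dose-response confirmation following an ultra-high-throughput screen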
T4 sequence (Q96LD8 whole entry): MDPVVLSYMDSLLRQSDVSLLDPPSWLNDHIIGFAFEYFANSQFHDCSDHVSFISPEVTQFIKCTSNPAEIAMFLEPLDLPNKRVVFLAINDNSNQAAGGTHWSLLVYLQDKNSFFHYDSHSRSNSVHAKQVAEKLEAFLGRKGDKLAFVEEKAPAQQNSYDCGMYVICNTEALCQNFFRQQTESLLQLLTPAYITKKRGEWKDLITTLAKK

[5] = target: T5, Sentrin-specific protease 6 (Homo sapiens, UniProt Q9GZR1); type: functional;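 note: Luminescence-based dose-response confirmatory assay of SENP6 inhibition, following up an ultra-high-throughput screen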
T5 sequence (Q9GZR1 whole entry): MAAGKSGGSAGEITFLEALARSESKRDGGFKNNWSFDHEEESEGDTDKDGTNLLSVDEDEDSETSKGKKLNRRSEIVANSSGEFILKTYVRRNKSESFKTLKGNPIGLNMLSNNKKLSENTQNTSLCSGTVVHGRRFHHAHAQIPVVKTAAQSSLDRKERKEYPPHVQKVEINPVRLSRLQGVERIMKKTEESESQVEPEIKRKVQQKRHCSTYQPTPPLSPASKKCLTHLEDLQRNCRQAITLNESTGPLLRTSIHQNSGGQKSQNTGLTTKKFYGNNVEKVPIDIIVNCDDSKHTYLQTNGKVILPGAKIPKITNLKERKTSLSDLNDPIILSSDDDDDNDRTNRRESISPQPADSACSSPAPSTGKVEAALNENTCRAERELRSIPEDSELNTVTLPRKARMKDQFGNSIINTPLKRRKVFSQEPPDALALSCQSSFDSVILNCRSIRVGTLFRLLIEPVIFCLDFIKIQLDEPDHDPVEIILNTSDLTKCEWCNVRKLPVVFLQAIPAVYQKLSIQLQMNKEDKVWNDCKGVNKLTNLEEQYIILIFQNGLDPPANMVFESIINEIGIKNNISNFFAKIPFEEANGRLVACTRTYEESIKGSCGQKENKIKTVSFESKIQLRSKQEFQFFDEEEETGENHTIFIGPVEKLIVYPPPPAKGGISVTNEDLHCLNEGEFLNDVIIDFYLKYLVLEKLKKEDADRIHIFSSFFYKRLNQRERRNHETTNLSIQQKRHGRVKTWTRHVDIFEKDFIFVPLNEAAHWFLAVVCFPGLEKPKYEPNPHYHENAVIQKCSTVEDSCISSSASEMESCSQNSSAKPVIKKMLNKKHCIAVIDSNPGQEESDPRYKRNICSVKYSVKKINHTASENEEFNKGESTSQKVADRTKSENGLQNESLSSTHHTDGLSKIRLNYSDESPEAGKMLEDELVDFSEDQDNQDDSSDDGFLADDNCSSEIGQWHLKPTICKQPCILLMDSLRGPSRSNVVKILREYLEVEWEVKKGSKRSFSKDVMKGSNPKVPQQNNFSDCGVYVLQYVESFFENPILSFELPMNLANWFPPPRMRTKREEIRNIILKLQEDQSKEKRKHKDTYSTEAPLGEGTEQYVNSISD

[6] = test system: H4; experiment: Luminescence Cell-Based Dose Response HTS to Identify Activators of 5'UTR Stem-Loop Driven Prion Protein mRNA Translation in H4 Neuroglioblastoma Cells. [Related pubchem assays: 1829 (Project Summary), 1814 (Primary HTS)]; type: functional; settings: Homo sapiens
[7] = Luminescence Cell-Based Dose Confirmation HTS to Identify Activators of 5'UTR Stem-Loop Driven Alpha-Synuclein mRNA Translation in H4 Neuroglioblastoma Cells. [Related pubchem assays: 1829 (Project Summary), 1814 (Primary HTS)]; type: functional
[8] = Luminescence Cell-Based Dose Response HTS to Identify Activators of Luciferase Translation or Activity in H4 […] Cells. [Related pubchem assays: 1829 (Project Summary), 1814 (Primary HTS)]; type: functional
[9] = target: T6, Adenosylmethionine-8-amino-7-oxononanoate aminotransferase (Mycobacterium tuberculosis, UniProt P9WQ81); experiment: Mycobacterium tuberculosis BioA enzyme inhibitor Measured in Biochemical System Using Plate Reader - 2163-02_Inhibitor_Dose_CherryPick_Activity.; type: functional, Mycobacterium tuberculosis UT205
T6 sequence (P9WQ81 whole entry): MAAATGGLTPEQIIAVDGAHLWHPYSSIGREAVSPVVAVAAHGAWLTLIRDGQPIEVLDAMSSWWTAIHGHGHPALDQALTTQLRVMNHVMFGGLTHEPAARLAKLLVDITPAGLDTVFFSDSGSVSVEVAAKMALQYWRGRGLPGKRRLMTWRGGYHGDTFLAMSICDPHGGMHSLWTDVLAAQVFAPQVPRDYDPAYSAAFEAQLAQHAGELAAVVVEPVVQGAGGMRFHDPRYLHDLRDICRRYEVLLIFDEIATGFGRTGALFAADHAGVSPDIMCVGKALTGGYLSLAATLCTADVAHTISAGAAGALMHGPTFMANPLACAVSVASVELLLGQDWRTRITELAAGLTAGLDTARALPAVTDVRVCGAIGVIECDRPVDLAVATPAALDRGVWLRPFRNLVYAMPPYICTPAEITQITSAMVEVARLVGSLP

[10] = target: T7, Apoptotic protease-activating factor 1 (Homo sapiens, UniProt O14727); type: functional
T7 sequence (O14727 whole entry): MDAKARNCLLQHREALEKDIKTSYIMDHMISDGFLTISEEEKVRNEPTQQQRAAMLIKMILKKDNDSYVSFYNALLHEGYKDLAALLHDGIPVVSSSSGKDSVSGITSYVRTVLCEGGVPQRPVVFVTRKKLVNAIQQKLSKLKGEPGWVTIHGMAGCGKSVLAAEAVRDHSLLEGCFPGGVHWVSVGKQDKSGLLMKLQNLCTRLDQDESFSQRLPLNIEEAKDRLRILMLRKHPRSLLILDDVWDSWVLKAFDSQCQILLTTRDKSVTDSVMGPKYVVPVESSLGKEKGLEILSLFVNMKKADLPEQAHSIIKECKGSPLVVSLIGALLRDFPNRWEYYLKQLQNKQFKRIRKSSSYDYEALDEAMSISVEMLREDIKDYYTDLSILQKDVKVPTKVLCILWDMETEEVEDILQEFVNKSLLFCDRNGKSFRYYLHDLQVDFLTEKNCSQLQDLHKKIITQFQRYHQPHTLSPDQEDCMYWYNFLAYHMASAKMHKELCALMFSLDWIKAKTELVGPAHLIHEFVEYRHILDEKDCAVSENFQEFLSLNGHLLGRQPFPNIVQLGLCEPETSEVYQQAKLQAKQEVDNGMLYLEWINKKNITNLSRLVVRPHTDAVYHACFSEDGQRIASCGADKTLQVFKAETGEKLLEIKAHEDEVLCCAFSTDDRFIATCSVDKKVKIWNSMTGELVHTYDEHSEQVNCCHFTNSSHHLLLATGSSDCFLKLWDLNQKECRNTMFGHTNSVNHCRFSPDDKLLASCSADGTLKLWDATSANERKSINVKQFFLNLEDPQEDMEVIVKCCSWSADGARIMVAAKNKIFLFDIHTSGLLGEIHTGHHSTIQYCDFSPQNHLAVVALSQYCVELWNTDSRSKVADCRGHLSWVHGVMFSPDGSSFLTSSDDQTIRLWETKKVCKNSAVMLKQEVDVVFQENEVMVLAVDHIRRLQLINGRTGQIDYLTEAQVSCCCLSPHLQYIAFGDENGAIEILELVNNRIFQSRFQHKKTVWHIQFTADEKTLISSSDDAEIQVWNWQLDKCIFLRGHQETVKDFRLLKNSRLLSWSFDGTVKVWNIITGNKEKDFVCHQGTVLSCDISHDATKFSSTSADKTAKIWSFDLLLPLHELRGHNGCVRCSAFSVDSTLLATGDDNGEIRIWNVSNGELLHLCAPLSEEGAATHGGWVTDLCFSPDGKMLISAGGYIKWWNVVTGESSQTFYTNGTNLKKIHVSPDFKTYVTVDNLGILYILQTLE

[11] = inhibitors of intracellular T. cruzi replication, confirmation, NIH3T3 host cells, beta-gal luminescence (AID 2044); type: functional, cell-based;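 note: intracellular parasites grown in NIH/3T3 mouse fibroblasts as host cells; luminescent beta-galactosidase reporter signal from transgenic T. cruzi replicating inside host cells; inhibitors lower the luminescence signal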
[12] = cytotoxicity toward NIH3T3 fibroblasts, dose response, counter-screen, cell-based, ATP luminescence, mouse fibroblasts (AID 2010); type: functional;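 note: cells exposed to compound for about 90 hours before reading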

SMILES	IC50 [1]	IC50 [3]	IC50 [4]	IC50 [5]	AC50 [9]	also measured
c1ccc(CCNc2ncnc3c2cnn3-c2ccccc2)cc1	7.14 µM (active)	22.5 µM (active)	22.9 µM (active)	19.6 µM (active)	–	IC50 [2]: > 100 µM (inactive)
O=C(O)c1ccc(COc2ccccc2[N+](=O)[O-])o1	10.5 µM (active)	> 100 µM (inactive)	31.3 µM (active)	35.6 µM (active)	–	–
COc1ccc(-c2noc(Cc3cccs3)n2)cc1	9.93 µM (active)	27.3 µM (active)	25 µM (active)	31.8 µM (active)	–	EC50 [6]: > 120 µM (not active); EC50 [7]: 24.9 µM (active); EC50 [8]: 0.501 µM (active)
O=C(Nc1ccc(N2CCOCC2)c(Cl)c1)c1cccnc1	–	–	–	–	13.3 µM (active)	–
COc1ccc(C/N=C/c2[nH]c3ccc(Br)c(Cl)c3c2O)cc1	–	–	–	–	–	IC50 [10]: 59.2 µM (active); EC50 [11]: 1.31 µM (active); EC50 [12]: > 60 µM (not active)
CN(Cc1ccccc1)C(=O)CCS(=O)(=O)c1ccc2c(c1)NC(=O)CS2	–	–	–	–	3.51 µM (active)	–
O=C(N/N=C/C(Cl)=C\c1ccccc1)c1cccs1	5.83 µM (active)	28.7 µM (active)	> 100 µM (inactive)	> 100 µM (inactive)	–	–
O=C(C[C@@H]1C[C@@H]2c3cc(NC(=O)c4cccnc4)ccc3O[C@@H]2[C@@H](CO)O1)NCc1cccnc1	–	–	–	–	10.7 µM (active)	–
